# Active and inactive are the calls of the source.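 The calls were made as follows: active = viability at the highest tested concentration below 50%; inactive = the rest.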
# Legend:
# [1] = viability loss, cell-based, CellTiter-Glo luminescence, cherry picks 01-02, cytotoxicity control for ABCB6 inhibitor project, dose response (AID 651655); conditions: K562 vector control cells viability, CellTiter-Glo, 18 h; at 100 µM (top of the series)
# [2] = tested on: K562 vector control cells viability, CellTiter-Glo, 18 h; assay: as above
Compound,viability [1],EC50 [2]
O=C(Nc1ccc(F)cc1)c1nc(S(=O)(=O)Cc2ccccc2)ncc1Cl,81.6% (inactive),
Cc1cccc(CS(=O)(=O)c2ncc(Cl)c(C(=O)Nc3ccc(F)cc3)n2)c1,90.2% (inactive),
Cc1nnc(NC(=O)c2nc(S(=O)(=O)Cc3ccccc3)ncc2Cl)s1,,2050 nM
CC(=O)Nc1ccc(NC(=O)c2nc(S(=O)(=O)Cc3cccc(C)c3)ncc2Cl)cc1,,660 nM
Cc1cccc(C)c1NC(=O)c1nc(S(=O)(=O)Cc2ccccc2)ncc1Cl,,979 nM
CCOC(=O)c1ccc(NC(=O)c2nc(S(=O)(=O)Cc3ccccc3)ncc2Cl)cc1,,1930 nM
Cc1ccc(CS(=O)(=O)c2ncc(Cl)c(C(=O)Nc3ccc(OC(F)F)cc3)n2)cc1,,741 nM
Cc1ccccc1CS(=O)(=O)c1ncc(Cl)c(C(=O)Nc2ccc(F)cc2)n1,61.6% (inactive),
C[N+](C)(C)CC1CCCC(C[N+](C)(C)C)C1=O (stereo not given),67.5% (inactive),
Cc1ccc(NC(=O)c2nc(S(=O)(=O)Cc3ccccc3)ncc2Cl)cc1,80.4% (inactive),
COC(=O)c1ccc(NC(=O)c2nc(S(=O)(=O)Cc3cccc(C)c3)ncc2Cl)cc1,82.7% (inactive),
Cc1ccc(NC(=O)c2nc(S(=O)(=O)Cc3ccccc3C)ncc2Cl)cc1C,,758 nM
CCCc1nnc(NC(=O)c2nc(S(=O)(=O)Cc3cccc(C)c3)ncc2Cl)s1,71.2% (inactive),
Cc1cccc(CS(=O)(=O)c2ncc(Cl)c(C(=O)Nc3nnc(C(C)C)s3)n2)c1,,627 nM
CC(=O)Nc1ccc(NC(=O)c2nc(S(=O)(=O)Cc3ccccc3)ncc2Cl)cc1,,911 nM
CCc1ccc(NC(=O)c2nc(S(=O)(=O)Cc3ccccc3)ncc2Cl)cc1,,390 nM
Cc1ccc(CS(=O)(=O)c2ncc(Cl)c(C(=O)Nc3nnc(C(C)C)s3)n2)cc1,,596 nM
CCOc1ccccc1NC(=O)c1nc(S(=O)(=O)Cc2cccc(C)c2)ncc1Cl,,715 nM
CCOc1ccccc1NC(=O)c1nc(S(=O)(=O)Cc2ccccc2)ncc1Cl,,2200 nM
CCN(CC)S(=O)(=O)c1cccc(-n2c(O)c(C=Nc3ccccc3C(=O)O)c3ccccc3c2=O)c1,79% (inactive),

# Reference: PubChem BioAssay AID651655 (NMMLSC, 2012)
